# Experimental data taken from a melting point compilation (Tetko et al.; mined from patent text by program, amines drawn as free bases though some values may be those of a salt).
row,SMILES,melting point [°C]
1,Cc1ccnc(-c2ccc(CBr)cc2)n1,104 to 106
2,COC(=O)C(/C(=C\c1ccccc1)C(N)=O)=C(\C)c1cc(OC)c(OC)c(OC)c1,118 to 120
3,O=c1ccccn1C1=CC(CF)(CF)Oc2ccc(C(F)(F)C(F)(F)C(F)(F)F)cc21,101 to 104
4,O=c1[nH]c2cc(Cl)ccc2c(O)c1-c1cccc(C#Cc2ccccc2)c1,297 to 300
5,Nc1cc(Cl)c(Br)c(Cl)c1,132
6,NC(=O)c1nn(-c2ccc(S(N)(=O)=O)cc2)c2cc(-c3ccc(F)cc3)ccc12,314 to 315
7,COC(=O)Nc1cccc(CC(=O)NC(C)(C)C)c1,123 to 124
8,CCN1CN(c2cccc(F)c2)c2ncccc2C1=O,123 to 124
9,C=CCOC1OC(C)C(OCc2ccccc2)C(OCc2ccccc2)C1OC1OC(C)C(OCc2ccccc2)C(OCc2ccccc2)C1O (centres undefined),98 to 99
10,Cc1ccc(Cn2c(=O)c3c(Cl)cc(Cl)cc3n(Cc3ccccc3)c2=O)cc1,166 to 169
11,CC(=O)C(CC(C)C)NC(=O)CCOc1ccc([N+](=O)[O-])cc1 (centres undefined),101 to 102
12,CC(=O)c1nc2ccc(Cl)cc2cc1OCc1ccccc1,107 to 110
13,CN(C)C=C1C[N+]([O-])=C(c2ccccc2Cl)c2cc(Cl)ccc2C1=O,196 to 198
14,CCOC(=O)C(=NNc1ccc(Cl)cc1)C(C)=O,84 to 85
15,N#Cc1nc(Cl)nc(N2CCS(=O)(=O)CC2)c1Cl,198 to 199
16,CC1(C)CCC(N2c3ccccc3Oc3ccccc32)=N1,148 to 150
17,O=C(O)c1ccc(-c2nnc3n2-c2cccnc2Nc2ccccc2-3)cc1,> 300
18,O=C/C=C/C=C(c1ccccc1)c1ccccc1,71 to 72
19,C=CC(=O)c1cnc(N2CCC[C@H]2CO)nc1NCc1ccc(OC)c(Cl)c1,113 to 115
20,Cc1c(OCCSCc2ccco2)ccnc1CNc1ncncc1Cl,129 to 130
21,CNc1c(OC)cc(Cc2cnc(N)nc2N)cc1OC,204
22,O=C(CCCl)Nc1ccc2[nH]c3ccc(NC(=O)CCCl)cc3c(=O)c2c1,> 350
23,CC(=O)C1=C(C)CC2C3CCC4CC5OC5CC4(C)C3C(=O)CC12C (centres undefined),155 to 157
24,O=C1CCc2cc(Cl)c(Cl)cc21,155
25,Cc1ccc(-n2ncc(C(=O)Nc3ccc(N4CCC(N5CCOCC5)CC4)c(C#N)c3)c2C)cc1,243

row,SMILES,melting point [°C]
1,CC(=O)Nc1cccc(C(=O)N[C@@H](C)C(=O)N2CCC[C@H]2C(=O)O)c1C(=O)O,127 to 128
2,CCOC(=O)N1CCN(C(=O)Oc2ccc([N+](=O)[O-])cc2)CC1,125 to 128
3,CCOC(=O)C(NC=O)C(=O)Nc1ccc(Br)cc1C (centres undefined),174 to 176
4,CC1(C)OCc2cc(C(O)CNCCCCCCOCCCCc3ccccc3)ccc2O1 (centres undefined),68 to 70
5,O=C1CNCc2cc(-c3ccc(F)cc3)c(C=NO)c3ccn1c23,277 to 279
6,COc1ccccc1COc1ccc(S(=O)(=O)c2ccc(C)nc2Nc2ccc(Cl)cc2C#N)cc1,178 to 180
7,CN1C(=O)CNC(c2cccc(Cl)c2)c2cc(C(=O)c3ccc(Cl)cc3)ccc21 (centres undefined),177
8,C[Si](C)(C)N1CCCCCN([Si](C)(C)C)CCN([Si](C)(C)C)CC1,78 to 86.5
9,CC(NS(C)(=O)=O)c1ccc2[nH]cc(CCN3C(=O)c4ccccc4C3=O)c2c1 (centres undefined),203 to 205
10,O=C(N[C@H](Cc1ccc(C(F)(F)F)cc1)[C@@H](O)c1ccc(F)cc1)c1cccc2cccc(Br)c12 (racemic),191 to 192
11,O=C(Cc1csc(-c2cccc(O)c2)n1)NC1C(=O)N2C(C(=O)OC(c3ccccc3)c3ccccc3)=CCSC12 (centres undefined),152 to 154
12,Cc1cc(C)cc(Oc2c(CO)c(C)[nH]c(=O)c2I)c1,248 to 250
13,O=C(O)c1ccccc1SCc1nccc2ccccc12,170 to 172
14,CC1(C)NC(=O)N(CC(CS(=O)(=O)c2ccc(-c3cccc(CC#N)c3)cc2)N(O)C=O)C1=O (centres undefined),186 to 189
15,CC(C)COC(=O)N=C(N=C1NC(=O)C(=O)N1c1ccc(Cl)c(Cl)c1)NC(C)C,260
16,C=CCOc1ccc(OCC)c2c1S(=O)(=O)N(Cc1ccccc1)C2=O,148 to 149
17,CNc1nc(Cl)nc2c1ncn2C1OC(CO)C(O)C1O (centres undefined),224 to 225
18,CCOP(=O)(Cc1nsc2ccc(-n3c(=O)cc(C(F)(F)F)n(C)c3=O)cc12)OCC,142 to 144
19,COC1(C)CN(c2ccc(N3C[C@H](CNC(C)=O)OC3=O)cc2F)C1,113 to 114
20,O=C(O)C1C=CCN2C(=O)C(CCS)(Cc3ccccc3)C(=O)N12 (centres undefined),151 to 154
21,COc1cc(C)c(C)cc1NC(=S)N1CCN(c2cc(Cl)cc(Cl)c2)CC1,188 to 189
22,CC(C)(C(=O)c1ccc(SCCCCS)cc1)N1CCOCC1,98
23,Cc1ccc(S(=O)(=O)NCC[C@@H](NS(=O)(=O)c2ccc(C)cc2)C(=O)NO)cc1,152 to 153
24,COC(=O)NCCOC(=O)C(C)Oc1ccc(OCc2ccccc2)cc1 (centres undefined),79 to 81
25,CCOC(=O)C=Cc1c(C)nc(SCc2ccc(OC)cc2)n1C,165 to 167

row,SMILES,melting point [°C]
1,Cc1cn(S(=O)(=O)c2ccc(=O)[nH]n2)c2ccccc12,> 220
2,O=C(Nc1ccccc1)c1c(C(=S)Nc2ccccc2)cccc1-c1ccccc1,150 to 152
3,O=c1[nH]c2cc(Cl)ccc2c(O)c1-c1cccc([N+](=O)[O-])c1,329 to 332
4,Cn1ccc2c1CC(C(=O)OCc1ccccc1)C1C(=O)NC(=O)C21 (centres undefined),189 to 193
5,Brc1cnc2c(c1)ncn2-c1cccc(-c2cccnc2)c1,212 to 213
6,CCOC(=O)C(OCc1ccc(-c2ccc(Cl)cc2)cc1)(C(F)(F)F)C(F)(F)F,62 to 62.5
7,COc1c(N)cc(C2(C)CC2)cc1NS(C)(=O)=O,144 to 146
8,Cc1c(OCC(F)(F)F)ccnc1CS(=O)c1nc2ccccc2n1S(=O)(=O)c1ccc2c(c1)OCCOCCOCCOCCO2 (centres undefined),76 to 80
9,COc1cc(Nc2c(C#N)cnc3cc(Sc4ccccc4)c(OC)cc23)c(Cl)cc1Cl,220 to 222
10,N#Cc1c(N2CCNCC2)c(F)cc2c(=O)c(C(=O)O)cn(C3CC3)c12,> 300
11,CC(=O)Nc1ccc2c(c1)[nH]c(=O)c(=O)n2C,390
12,CC(C)(O)CCCCCc1cccc(C=Cc2cc(CO)cc(CO)c2)c1,108 to 109
13,CCCO[C@@H]1C[C@@H](C(=O)O)N(C(C)=O)C1,148 to 153
14,CSc1ncc(CO)c(Nc2ccccc2)n1,142 to 143
15,CCC(O)(CC)c1ccc(-c2cccc(OCc3ccc(CO)c(CO)c3)c2)cc1C,76
16,COc1c(N2CCO[C@@H](CN(C)C)C2)c(F)cc2c(=O)c(C(=O)O)cn(C3CC3)c12,146 to 147
17,CCOC(=O)Cn1c2ccc(Cl)ccc-2c(C(C)=O)c1=O,184
18,CC(CCCC(C(=O)O)C(=O)O)C1CC=C2C3=C(CCC21C)C1(C)CCC(O)C(C)(C)C1CC3 (centres undefined),188 to 190
19,CCOC(=O)C(=O)c1csc(NC(=O)Nc2ccc(F)cc2)n1,220 to 223
20,CC(=O)OC1CSC(Oc2ccc(-c3sc(C)nc3C)nc2)C(OC(C)=O)C1OC(C)=O (centres undefined),174 to 177
21,NC(=O)CC(CC(N)=O)c1c(Cl)cccc1Cl,221 to 225
22,OCC[C@H]1CN(Cc2ccccc2)CCN1,78.9 to 80.4
23,O=C(NCCc1ccccn1)N(c1ccccc1)c1ccccc1,109
24,Cc1nc(Nc2ccccc2)sc1-c1ccnc(Nc2ccc(N3CCOCC3)cc2)n1,290 to 291
25,Cc1cc(CC(=O)c2ccc(F)cc2)on1,92 to 93

row,SMILES,melting point [°C]
1,Nc1nc(-n2cc(C(=O)O)c(=O)c3cc(F)c(N4CC(O)C4)c(F)c32)c(F)cc1F,269 to 272
2,CCOC(=O)[C@H](Cc1cccc(C#N)c1)NS(=O)(=O)c1ccc2c(c1)CN(C(C)C)CC2,110
3,CCOC1=C([N+](=O)[O-])CN(C(C)C)C1=O,47
4,CCOC(=O)c1cc(O)nn1-c1ncc(Cl)cc1Cl,164 to 167
5,CC(C)(C)OC(=O)c1ccc(N)cc1F,100 to 101
6,CC(=O)Nc1ccccc1CSc1nccn1-c1ccncc1,153 to 155
7,COC(=O)c1ccc(CN(C(C)C)S(=O)(=O)c2ccc(Cl)cc2)cc1,110 to 112
8,CC1(C)C(C(=O)Nc2ccccc2)C1(C)C,149
9,Cc1nc2[nH]c3ccccc3c2c(N)c1C(N)=O,305 to 308
10,CC[C@@]1(C)OC(=O)C(c2ccc(F)c(F)c2)=C1c1ccc(S(C)(=O)=O)cc1,144
11,CS(=O)(=O)Oc1ccc(-c2c3ccccc3c(I)c3sc4ccccc4c23)cc1,176 to 186
12,Cc1cc2c(cc1C(O)c1c(C(F)(F)F)ccnc1Cl)OCO2 (centres undefined),127 to 130
13,CC(=O)Nc1ccc(C=CC(=O)c2ccc(OCC=C(C)C)cc2O)cc1,150 to 152
14,O=CNCc1nc2ccccc2o1,98 to 99
15,Cc1c(C#N)cccc1C(=O)c1ccc(Cl)cc1,84
16,CC(CCC(=O)NC(C)(C)CO)C1CCC2C3C(=O)CC4CC(O)CCC4(C)C3CCC12C (centres undefined),220 to 222
17,CCOc1cc(N)c(Cl)cc1C(=O)NC1CCN(CC2CCN(C(=O)N(C)C)CC2)CC1,203 to 205
18,Nc1c(F)c(N2CCCC2)c(F)c2c1c(=O)c(C(=O)O)cn2C1COC1,250 to 253
19,O=C(O)C1=C(c2ccccc2)c2cc(Cl)ccc2OC1C(F)(F)F (centres undefined),226 to 227
20,O=C(O)C1=CCC2C1C(=O)C2(Cl)Cl (centres undefined),157 to 160
21,Cc1nc(N2CCCC2C)c2nc(-c3ccccc3)cc-2[nH]1 (centres undefined),219 to 221
22,CCOC(=O)C1=C(C)NC(CO)=C(C(=O)OCC)C1c1cccc(O)c1 (centres undefined),162 to 163
23,CNC1(c2cccc(NC(=O)c3cc(OC)c(OC)c(OC)c3)c2)NC=Nc2cc(OC)c(OC)cc21 (centres undefined),122 to 124
24,CSCCCC(=O)NNC(=O)N1Cc2ccccc2Oc2ccc(Cl)cc21,134 to 137
